Results published in US11773057B2, “Naphthalenesulfonamide compound, preparation method, and application” (CHINA PHARMACEUTICAL UNIVERSITY, priority 2019, dated 2023).

molecular target: T1, Keap1-Nrf2 PPI (Keap1 kelch domain protein, FITC labeled Nrf2 9 peptide) (Homo sapiens, UniProt Q14145); experiment: Fluorescence polarization based Keap1-Nrf2 PPI competitive inhibition experiment (FP experiment); assay type: binding; details: FP experiment; general formula I / II compounds
T1 construct: 10 μL 12 nm Keap1 kelch domain protein
T1 sequence (Q14145 321-609 limits assumed): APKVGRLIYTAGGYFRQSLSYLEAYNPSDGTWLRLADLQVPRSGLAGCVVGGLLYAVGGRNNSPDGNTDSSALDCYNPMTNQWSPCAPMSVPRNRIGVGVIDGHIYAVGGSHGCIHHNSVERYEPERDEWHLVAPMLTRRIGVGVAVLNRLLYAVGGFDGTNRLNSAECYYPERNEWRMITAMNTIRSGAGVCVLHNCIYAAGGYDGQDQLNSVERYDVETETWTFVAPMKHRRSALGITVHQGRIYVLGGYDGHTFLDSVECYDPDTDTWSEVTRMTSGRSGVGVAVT
Description: 1. Keap1-Nrf2 PPI Competitive Inhibition Test Based on Fluorescence Polarization (FP Experiment)
The 384-well blackboard model 3676 produced by Corning is used in FP experiment, with a total volume of reaction of 40 μL. 20 μL compound, 10 μL 4 nm FITC labeled Nrf2 9 peptide, 10 μL 12 nm Keap1 kelch domain protein are added to the well in order. 20 μL 200 nM DDO-1002, 10 μL 4 nM of the FITC-labeled Nrf2 9 peptide, 10 μL 12 nM of Keap1 Ketch domain protein are used in the positive control; 20 μL HEPES buffer, 10 μL 4 nM of the FITC-labeled Nrf2 9 peptide, 10 μL, 12 nM of Keap1 Kelch domain protein are used in the negative control; 10 μL 4 nM of the FITC-labeled Nrf2 9 peptide, 30 μL of HEPES buffer are used in the blank control. After addition is complete, they are incubated for 30 min at room temperature. The detection instrument is a SpectraMax Multi-Mode Microplate Reader (Molecular Devices), the excitation light wavelength selected is 485 nm, the emission light wavelength is 545 nm, and the fluorescence intensity in the horizontal and vertical directions is detected to calculate the polarization value. The inhibition rate is calculated as: inhibition %=[…]/(Pmax−Pmin) wherein Pobs is the polarization value of the compound well, Pmax is the polarization value of the negative control well, and Pmin is the polarization value of the blank well. Data treatment is performed using GraphPad Prism, and IC50 of the compound is calculated using a concentration-inhibition rate curve. The IC50 values for each compound are as previously described.

SMILES	IC50
COc1ccc(S(=O)(=O)Nc2ccc(N(Cc3ccccc3)[C@@H](C)CC(=O)O)c3ccccc23)cc1 [DDO-1160]	860 nM
COc1ccc(S(=O)(=O)N(CC(=O)O)c2ccc(N(Cc3ccccc3)[C@@H](C)CC(=O)O)c3ccccc23)cc1 [DDO-1161, (S)-3-(benzyl(4-((N-(carboxymethyl)-4methoxyphenyl)sulfonamido)naphthalen-1-yl) (benzyl)amino) butanoic acid]	108 nM
COc1ccc(S(=O)(=O)Nc2ccc(N(Cc3ccc(C)cc3)[C@@H](C)CC(=O)O)c3ccccc23)cc1 [DDO-1162, 3-((4-((4-methoxyphenyl)sulfonamido)naphthalen-1-yl) (4-methylbenzyl)amino) butanoic acid]	1910 nM
COc1ccc(S(=O)(=O)N(CC(=O)O)c2ccc(N(Cc3ccc(C)cc3)[C@@H](C)CC(=O)O)c3ccccc23)cc1 [DDO-1163]	152 nM
COc1ccc(S(=O)(=O)Nc2ccc(N(Cc3ccc(Cl)cc3)[C@@H](C)CC(=O)O)c3ccccc23)cc1 [DDO-1164, (S)-3-((4-chlorobenzyl) (4-((4-methoxyphenyl)sulfonamido)naphthalen-1-yl)amino) butanoic acid]	4100 nM
COc1ccc(S(=O)(=O)N(CC(=O)O)c2ccc(N(Cc3ccc(Cl)cc3)[C@@H](C)CC(=O)O)c3ccccc23)cc1 [DDO-1165, (S)-3-((4-((N-(carboxymethyl)-4-methoxyphenyl)sulfonamido)naphthalen-1-yl) (4-chlorobenzyl)amino) butanoic acid]	272 nM
COc1ccc(S(=O)(=O)Nc2ccc(N(Cc3ccc(F)cc3)[C@@H](C)CC(=O)O)c3ccccc23)cc1 [DDO-1166, (S)-3-((4-fluorobenzyl) (4-((4-methoxyphenyl)sulfonamido)naphthalen-1-yl)amino) butanoic acid]	2150 nM
COc1ccc(S(=O)(=O)N(CC(=O)O)c2ccc(N(Cc3ccc(F)cc3)[C@@H](C)CC(=O)O)c3ccccc23)cc1 [DDO-1167, (S)-3-((4-((N-(carboxymethyl)-4-methoxyphenyl)sulfonamido)naphthalen-1-yl) (4-fluorobenzyl)amino) butanoic acid]	176 nM
COc1ccc(S(=O)(=O)Nc2ccc(N(Cc3cccc(C)c3)[C@@H](C)CC(=O)O)c3ccccc23)cc1 [DDO-1168, (S)-3-((4-((4-methoxyphenyl)sulfonamido)naphthalen-1-yl) (3-methylbenzyl)amino) butanoic acid]	1660 nM
COc1ccc(S(=O)(=O)N(CC(=O)O)c2ccc(N(Cc3cccc(C)c3)[C@@H](C)CC(=O)O)c3ccccc23)cc1 [DDO-1169]	205 nM
COc1ccc(S(=O)(=O)Nc2ccc(N(Cc3ccccc3C)[C@@H](C)CC(=O)O)c3ccccc23)cc1 [DDO-1170, (S)-3-((4-((4-methoxyphenyl)sulfonamido)naphthalen-1-yl) (2-methylbenzyl)amino) butanoic acid]	1090 nM
COc1ccc(S(=O)(=O)N(CC(=O)O)c2ccc(N(Cc3ccccc3C)[C@@H](C)CC(=O)O)c3ccccc23)cc1 [DDO-1171]	113 nM
COc1ccc(S(=O)(=O)Nc2ccc(N(Cc3cccc(Cl)c3)[C@@H](C)CC(=O)O)c3ccccc23)cc1 [DDO-1172, (S)-3-((3-chlorobenzyl) (4-((4-methoxyphenyl)sulfonamido)naphthalen-1-yl)amino) butanoic acid]	3780 nM
COc1ccc(S(=O)(=O)N(CC(=O)O)c2ccc(N(Cc3cccc(Cl)c3)[C@@H](C)CC(=O)O)c3ccccc23)cc1 [DDO-1173, (S)-3-((4-((N-(Carboxymethyl)-4-methoxyphenyl)sulfonamido)naphthalen-1-yl) (3-chlorobenzyl)amino) butanoic acid]	180 nM
COc1ccc(S(=O)(=O)Nc2ccc(N(Cc3ccccc3Cl)[C@@H](C)CC(=O)O)c3ccccc23)cc1 [DDO-1174, (S)-3-((2-chlorobenzyl) (4-((4-methoxyphenyl)sulfonamido)naphthalen-1-yl)amino) butanoic acid]	1600 nM
COc1ccc(S(=O)(=O)N(CC(=O)O)c2ccc(N(Cc3ccccc3Cl)[C@@H](C)CC(=O)O)c3ccccc23)cc1 [DDO-1175, (S)-3-((4-((N-(Carboxymethyl)-4-methoxyphenyl)sulfonamido)naphthalen-1-yl) (2-chlorobenzyl)amino) butanoic acid]	109 nM
COc1ccc(S(=O)(=O)Nc2ccc(N(Cc3cccc(F)c3)[C@@H](C)CC(=O)O)c3ccccc23)cc1 [DDO-1176, (S)-3-((3-fluorobenzyl) (4-((4-methoxyphenyl)sulfonamido)naphthalen-1-yl)amino) butanoic acid]	2470 nM
COc1ccc(S(=O)(=O)N(CC(=O)O)c2ccc(N(Cc3cccc(F)c3)[C@@H](C)CC(=O)O)c3ccccc23)cc1 [DDO-1177, (S)-3-((4-((N-(carboxymethyl)-4-methoxyphenyl)sulfonamido)naphthalen-1-yl) (3-fluorobenzyl)amino) butanoic acid]	180 nM
COc1ccc(S(=O)(=O)Nc2ccc(N(Cc3ccccc3F)[C@@H](C)CC(=O)O)c3ccccc23)cc1 [DDO-1178, (S)-3-((2-fluorobenzyl) (4-((4-methoxyphenyl)sulfonamido)naphthalen-1-yl)amino) butanoic acid]	460 nM
COc1ccc(S(=O)(=O)N(CC(=O)O)c2ccc(N(Cc3ccccc3F)[C@@H](C)CC(=O)O)c3ccccc23)cc1 [DDO-1179]	75 nM

same assay, conditions: FP experiment; general formula III compounds; unit inferred

SMILES	IC50
C#CCN(c1ccc(NS(=O)(=O)c2ccc(OC)cc2)c2ccccc12)[C@@H](C)CC(=O)O [DDO-1180]	95 nM
C#CCN(c1ccc(NS(=O)(=O)c2ccccc2)c2ccccc12)[C@@H](C)CC(=O)O [DDO-1186, (S)-3-((4-(phenylsulfonamido)naphthalen-1-yl)(prop-2-yn-1-yl)amino) butanoic acid]	8000 nM
C#CCN(c1ccc(NS(=O)(=O)c2ccc(NC(C)=O)cc2)c2ccccc12)[C@@H](C)CC(=O)O [DDO-1188, (S)-3-((4-((4-acetamidophenyl)sulfonamido)naphthalen-1-yl) (prop-2-yn-1-yl)amino) butanoic acid]	1460 nM
C#CCN(c1ccc(NS(=O)(=O)c2ccc(F)cc2)c2ccccc12)[C@@H](C)CC(=O)O [DDO-1190, (S)-3-((4-((4-fluorophenyl)sulfonamido)naphthalen-1-yl)(prop-2-yn-1-yl)amino) butanoic acid]	4000 nM
C#CCN(c1ccc(NS(=O)(=O)c2ccc(Cl)cc2)c2ccccc12)[C@@H](C)CC(=O)O [DDO-1192, (S)-3-((4-((4-chlorophenyl)sulfonamido)naphthalen-1-yl)(prop-2-yn-1-yl)amino) butanoic acid]	1700 nM
C#CCN(c1ccc(NS(=O)(=O)c2ccc(C)cc2)c2ccccc12)[C@@H](C)CC(=O)O [DDO-1194, (S)-3-((4-((4-methylphenyl)sulfonamido)naphthalen-1-yl)(prop-2-yn-1-yl)amino) butanoic acid]	480 nM
C#CCN(c1ccc(NS(=O)(=O)c2ccc(C(C)C)cc2)c2ccccc12)[C@@H](C)CC(=O)O [DDO-1196, (S)-3-((4-((4-isopropylphenyl)sulfonamido)naphthalen-1-yl)(prop-2-yn-1-yl)amino) butanoic acid]	220 nM

same assay, conditions: FP experiment; general formula IV compounds

SMILES	IC50
C#CCN(c1ccc(N(CC(=O)O)S(=O)(=O)c2ccc(OC)cc2)c2ccccc12)[C@@H](C)CC(=O)O [DDO-1181]	68 nM
C#CCN(c1ccc(N(CC(=O)O)S(=O)(=O)c2ccccc2)c2ccccc12)[C@@H](C)CC(=O)O [DDO-1187, (S)-3-((4-(N-(carboxymethyl)benzenesulfonamido)naphthalen-1-yl) (prop-2-yn-1-yl)amino) butanoic acid]	3000 nM
C#CCN(c1ccc(N(CC(=O)O)S(=O)(=O)c2ccc(NC(C)=O)cc2)c2ccccc12)[C@@H](C)CC(=O)O [DDO-1189, (S)-3-((4-((4-acetamido-N-(carboxymethyl)phenyl)sulfonamido)naphthalen-1-yl)(prop-2-yn-1-yl)amino) butanoic acid]	630 nM
C#CCN(c1ccc(N(CC(=O)O)S(=O)(=O)c2ccc(F)cc2)c2ccccc12)[C@@H](C)CC(=O)O [DDO-1191, (S)-3-((4-((N-(carboxymethyl)-4-fluorophenyl)sulfonamido)naphthalen-1-yl) (prop-2-yn-1-yl)amino) butanoic acid]	2000 nM
C#CCN(c1ccc(N(CC(=O)O)S(=O)(=O)c2ccc(Cl)cc2)c2ccccc12)[C@@H](C)CC(=O)O [DDO-1193, (S)-3-((4-((N-(Carboxymethyl)-4-chlorophenyl)sulfonamido)naphthalen-1-yl)(prop-2-yn-1-yl)amino) butanoic acid]	950 nM
C#CCN(c1ccc(N(CC(=O)O)S(=O)(=O)c2ccc(C)cc2)c2ccccc12)[C@@H](C)CC(=O)O [DDO-1195, (S)-3-((4-((N-(Carboxymethyl)-4-methylphenyl)sulfonamide)naphthalen-1-yl)(prop-2-yn-1-yl)amino) butanoic acid]	110 nM
